What is called half-life is the time needed for the level to fall by half in the phase considered. As a reminder, the EC50 is the concentration that produces a half-maximal response.

Where a SMILES comes first, the peptide text is derived from it. Bridges are numbered along the chain shown (N, C = ends). [ ]: non-standard residue; d: D form. Nle = CCCC[C@H](N)C(=O)O

Data set [1] is described as follows: Surrogate Activity-Based Plasma Stability Assay (calcium flux EC50 after incubation with 5% rat plasma). The note with it: not told. Background: Calcium assays in cells follow changes in intracellular calcium, usually with a dye or a luminescent sensor.
Description: The slope of this line, k, was determined by linear regression (Microsoft Excel). • Stability half-life was then calculated by the formula, t ½=0.693÷k Surrogate Activity-Based Plasma Stability Assay:
The calcium flux protocol described above was followed, with the following changes. The peptides were also incubated with 5% rat plasma (Bioreclamation # [sequence]-M, Na Heparin-treated). Readings were taken at time points t0 and t24 hrs, after incubation in a 37° C. tissue culture incubator. Peptide plasma half-life in minutes was estimated by calculating the following:
2) Calculate slope of value above and
The target of a further data set is T1, hAPJ (Homo sapiens, UniProt P35414).
T1 sequence (P35414 1-380): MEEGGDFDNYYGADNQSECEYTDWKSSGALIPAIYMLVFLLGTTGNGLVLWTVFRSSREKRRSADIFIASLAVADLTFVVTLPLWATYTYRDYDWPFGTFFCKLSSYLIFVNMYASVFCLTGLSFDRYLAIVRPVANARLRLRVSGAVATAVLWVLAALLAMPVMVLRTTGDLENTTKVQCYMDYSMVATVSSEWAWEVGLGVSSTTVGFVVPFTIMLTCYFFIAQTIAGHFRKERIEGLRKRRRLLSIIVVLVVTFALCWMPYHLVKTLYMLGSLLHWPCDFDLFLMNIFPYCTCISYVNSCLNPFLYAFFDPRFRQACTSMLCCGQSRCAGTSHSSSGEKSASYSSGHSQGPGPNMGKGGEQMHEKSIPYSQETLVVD
Kind of data set: hAPJ Calcium Flux Assay. The format is cell-based.

Description for hAPJ: Chem-5 APJ stable cells (Millipore # HTS068C) were plated in 384-well format with 10,000 cells/well in 25 ul growth media, then grown 24 hours in a 37° C. tissue culture incubator. One hour before the assay, 25 ul/well FLIPR Calcium 4 dye (Molecular Devices R8142) with 2.5 mM probenecid was added, and cells were incubated one hour in a 37° C. tissue culture incubator. Peptides were solubilized in HBSS, HEPES & 0.1% BSA buffer, and serially-diluted 10-fold, from 50 uM to 5 pM, in triplicate. FLIPR Tetra was used to add peptide to the cells with dye (1:5, for final peptide concentrations ranging from 10 uM to 1 pM). FLIPR dye inside the cells emitted fluorescence after binding to calcium, while fluorescence from outside the cells was masked. Fluorescence was measured using 470-495 excitation and 515-575 emission wavelengths on the FLIPR Tetra. Readings were done for 3 minutes total, beginning 10 seconds before the peptide addition. Maximum-minimum values were calculated and plotted for each peptide concentration, and Graph Pad prism software was used to calculate EC50 values at the curve inflection points, for calcium flux stimulation by peptides.

With `CCCC[C@@H]1NC(=O)[C@@H]2CCCN2C(=O)CNC(=O)[C@H](CCCCN)NC(=O)[C@H](Cc2ccccc2)NC(=O)[C@@H]2CSSC[C@H](NC1=O)C(=O)N[C@@H](Cc1ccccc1)C(=O)NCC(=O)NCC(=O)N[C@@H](CCC(N)=O)C(=O)N[C@@H](CCCNC(=N)N)C(=O)N1CCC[C@H]1C(=O)N[C@@H](CCCNC(=N)N)C(=O)N[C@@H](CC(C)C)C(=O)N2` [Example 7, Q-R-P-R-L-C-F-K-G-P-Nle-C-F-G-G] (cyclo(CFGGQRPRLCFKGP[Nle]); disulfide 1-10), the half-life in data set [1] is over 16.7 h. For the same molecule, at hAPJ, the EC50 turned out to be 90.9 nM.

Source of the values: US9982017B2, “Synthetic apelin mimetics for the treatment of heart failure” (priority 2012, dated 2018).
